# In patent US5516797A, “Immunosuppressive compounds” (Vertex Pharmaceuticals, Incorporated, priority 1994, dated 1996):
# Assays:
# [1] = tested on: human peripheral blood lymphocytes; assay: Mitogenesis assay OKT3: inhibition of proliferation of human PBLs; assay type: cell-based; conditions: Lymphocyte, OKT3 (10^-4 dilution final), 48 h incubation
# Experimental: (§1) PMA and OKT3mitogens used to stimulate proliferation of human peripheral
# (§2) blood lymphocytes (PBC). Compounds are evaluated on their ability to
# (§3) Fresh peripheral blood lymphocytes (PBLs) from LeukoPak cells or whole blood from random normal blood donors (tested HIV-negative and hepatitis negative) are isolated and separated by density centrifugation over Histopaque 1077 (Sigma Chemical Co., St. Louis, Mo.). The murine CTLL cytotoxic T cell line and the human Jurkat T cell line are from ATCC (CTLL-2 ATCC TIB214, JURKAT CLONE E6-1 ATCC TIBl52). The human allogeneic B cell lines used for activation of the fresh PBLs are EBV-transformed lymphocytes from normal healthy adult donors with two completely different HLAhaplotypes. All cell lines were routinely tested for the presence of Mycolasma contamination using the GibcoMycotect test kit and are Mycolasma-free. Culture medium consksts of RPMI 1640 (Gibco, Grand Island, N.Y.) containing penicillin (50 U/ml) and streptomycin (50 μg/ml), L-glutamine 2 mM, 2 mercaptoethanol (5×10^-5), 10% heat-inactivated FCS and 10 mM HEPES.
# (§4) All chemical stocks were dissolved in DMSO.
# (§5) Mitogenesis Assays ("PMA" and "OKT3")
# (§6) After 48 h incubation (37° C., 5% CO2), cells were pulsed with 1 μCi of ^3 H-thymidine, harvested 24 h later with a Tom Tek cell harvester, and counted in LKB β-scintillation counter.
# [2] = tested on: PBLs stimulated with JVM human viral transformed B lymphoblastoid cells; assay: MLR bioassay JVM: inhibition of proliferation in mixed lymphocyte reaction; assay type: cell-based; conditions: Lymphoblastoid cell, pulsed on day 6, harvested 24 h later
# Experimental: (§7) LB and JVMhuman viraltransformed B lymphoblastoid cell lines stimulated t
# (§8) proliferate in a mixed lymphocyte reaction (MLR). The compounds are
# (§9) evaluated on their ability to inhibit this proliferation.
# as §3, §4
# (§10) MLR Bioassays ("LB" and "JVM")
# (§11) Antigen activated proliferation of PBLs in a primary mixed lymphocyte reaction was assessed in the presence or absence of different concentrations of tested compounds and control drugs. 5×10^4 fresh PBLs were stimulated with 5×10^3 of Mitomycin C treated-allogeneic EBV-transformed β-lymphoglastoid cells, IB and JVM, in a final volume of 200 μl per well in 96-well round-bottomed plates (Mishell, B. B. and S. M. Shiigi, Selected Methods in Cellular Immunology W. H. Freeman and Co., San Francisco, Calif. (1980); Nelson, P. A. et al., Transplantation 50:286 (1990)). Cultures were pulsed on day 6, harvested 24 h later and counted as in previous section.
# [3] = target: T1, FK-506 binding protein (FKBP) (Homo sapiens, UniProt P62942); assay: Competitive binding to FKBP against [3H]dihydro-FK-506 (apparent Kd); conditions: competition with [3H]dihydro-FK-506
# T1 sequence (P62942 whole entry): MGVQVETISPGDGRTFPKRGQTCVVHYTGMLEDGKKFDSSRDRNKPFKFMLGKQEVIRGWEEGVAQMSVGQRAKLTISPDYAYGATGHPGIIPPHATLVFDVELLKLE
# [4] = tested on: PBLs stimulated with LB human viral transformed B lymphoblastoid cells; assay: MLR bioassay LB: inhibition of proliferation in mixed lymphocyte reaction; assay type: cell-based; conditions: Lymphoblastoid cell, pulsed on day 6, harvested 24 h later
# Experimental: as §7, §8, §9, §3, §4, §10, §11
# [5] = tested on: human peripheral blood lymphocytes; assay: Mitogenesis assay PMA: inhibition of proliferation of human PBLs; assay type: cell-based; conditions: Lymphocyte, PMA (10 ng/ml) plus ionomycin (250 ng/ml), 48 h incubation
# Experimental: as §1, §2, §3, §4, §5, §6
# [6] = target: T1, FK-506 binding protein (FKBP); assay: Inhibition of PPIase (rotamase) enzyme activity of FKBP (apparent Ki); assay type: biochemical; conditions: substrate N-succinylAla-Ala-Pro-Phe-p-nitroanilide, chymotrypsin-coupled
# Description: The inhibition of the PPIase (rotamase) enzyme activity of the FKBP (apparent "Ki" values) can also be measured according to the methods described by either Harding, M. W. et al., Nature 341:758-760 (1989) or Siekierka, J. J. et al., Nature 341:755-757 (1989). The cis-trans isomerization of the proline-alanine peptide bond in a model substrate, N-succinylAla-Ala-Pro-Phe-p-nitroanilide, is monitored spectrophotometrically in a coupled assay with chymotrypsin, which releases 4-nitroanilide from the trans form of the substrate. Fischer, G. et al., Nature 337:476-478 (1989). The inhibitory effect of the addition of different concentrations of inhibitor on the extent of the reaction is determined, and analysis of the change in first order rate constant as a function of inhibitor concentration yields an estimate of the apparent Ki value.
Kd [3],Ki [6],Structure (SMILES),IC50 [1],IC50 [2],IC50 [4],IC50 [5]
> 2 µM,–,"O=C(C(=O)N1CCCC[C@H]1C(=O)OCc1ccccc1)c1ccccc1 [Compound 3, (S)-Benzyl N-(phenylglyoxyl)pipecolate]",4.6 µM,> 10 µM,> 10 µM,7.6 µM
> 1.3 µM,0.3 µM,COc1cccc(C(=O)C(=O)N2CCCC[C@H]2C(=O)OCc2ccccc2)c1 [Compound 9],6.5 µM,> 10 µM,> 10 µM,> 10 µM
2 µM,0.1 µM,COc1cc(C(=O)C(=O)N2CCCC[C@H]2C(=O)OCc2ccccc2)cc(OC)c1OC [Compound 13],5.9 µM,> 10 µM,> 10 µM,> 10 µM
100 µM,160 µM,O=C(C(=O)N1CCCC[C@H]1C(=O)OCc1ccccc1)c1ccc([N+](=O)[O-])cc1 [Compound 16],> 10 µM,> 10 µM,> 10 µM,> 10 µM
4 µM,0.8 µM,O=C(C(=O)N1CCCC[C@H]1C(=O)OCc1ccccc1)c1cccs1 [Compound 22],> 10 µM,> 10 µM,> 10 µM,> 10 µM
3 µM,1.3 µM,O=C(C(=O)N1CCCC[C@H]1C(=O)OCc1ccccc1)C1CCCCC1 [Compound 40],1 µM,> 10 µM,> 10 µM,7 µM
2 µM,1 µM,O=C(OCc1ccccc1)[C@@H]1CCCCN1C(=O)C(=O)C1(O)CCCCC1 [Compound 46],> 10 µM,> 10 µM,> 10 µM,> 10 µM
0.3 µM,1.5 µM,O=C(C(=O)N1CCCC[C@H]1C(=O)OCc1ccccc1)c1ccc2ccccc2c1 [Compound 47],> 10 µM,> 10 µM,> 10 µM,> 10 µM
2 µM,1 µM,O=C(C(=O)N1CCCC[C@H]1C(=O)OCc1ccccc1)c1cccc2ccccc12 [Compound 48],> 10 µM,> 10 µM,> 10 µM,> 10 µM
0.6 µM,0.5 µM,C[C@H](OC(=O)[C@@H]1CCCCN1C(=O)C(=O)c1ccccc1)c1ccccc1 [Compound 49],6.2 µM,> 10 µM,> 10 µM,> 10 µM
0.35 µM,12 µM,O=C(OCc1ccccc1)[C@@H]1CCCCN1C(=O)C(=O)C1(O)CCCCO1 (stereo partly shown) [Compound 50],–,–,–,–
1 µM,1.5 µM,C[C@@H](OC(=O)[C@@H]1CCCCN1C(=O)C(=O)c1ccccc1)c1ccccc1 [Compound 51],–,–,–,–
1.3 µM,1.5 µM,O=C(C(=O)N1CCCC[C@H]1C(=O)OCc1ccccc1)c1cccc(C(F)(F)F)c1 [Compound 52],> 10 µM,> 10 µM,> 10 µM,> 10 µM
0.2 µM,0.5 µM,O=C(C(=O)N1CCCC[C@H]1C(=O)OCc1ccccc1)c1cccc(OCc2ccccc2)c1 [Compound 53],8 µM,> 10 µM,> 10 µM,> 10 µM
3 µM,9 µM,CC(C)(C)/C=C/C(=O)C(=O)N1CCCC[C@H]1C(=O)OCc1ccccc1 [Compound 54],–,–,–,–
0.15 µM,0.09 µM,O=C(C(=O)N1CCCC[C@H]1C(=O)OCc1cccc(Oc2ccccc2)c1)c1ccccc1 [Compound 62],> 10 µM,> 10 µM,> 10 µM,6.5 µM
0.1 µM,–,COc1cc(C(=O)C(=O)N2CCCC[C@H]2C(=O)OCCCCc2ccccc2)cc(OC)c1OC [Compound 63],3.1 µM,8.5 µM,10 µM,6 µM
0.05 µM,0.1 µM,COc1cc(C(=O)C(=O)N2CCCC[C@H]2C(=O)OCCCCCCc2ccccc2)cc(OC)c1OC [Compound 71],5.5 µM,8 µM,7.5 µM,5 µM

Kd [3],Ki [6],Structure (SMILES),IC50 [1],IC50 [2],IC50 [4],IC50 [5]
0.5 µM,0.05 µM,COc1cc(C(=O)C(=O)N2CCCC[C@H]2C(=O)OCCCCCCC2CCCCC2)cc(OC)c1OC [Compound 72],> 10 µM,> 10 µM,> 10 µM,9 µM
0.08 µM,0.09 µM,COc1cc(C(=O)C(=O)N2CCCC[C@H]2C(=O)OCCCCCC2CCCCC2)cc(OC)c1OC [Compound 74],9 µM,10 µM,10 µM,8 µM
0.06 µM,0.016 µM,COc1cc(C(=O)C(=O)N2CCCC[C@H]2C(=O)OCCCCc2ccc(I)cc2)cc(OC)c1OC [Compound 77],8 µM,7 µM,6 µM,4.5 µM
0.049 µM,–,COc1ccc(CCCCOC(=O)[C@@H]2CCCCN2C(=O)C(=O)c2cc(OC)c(OC)c(OC)c2)cc1 [Compound 85],4.5 µM,10 µM,7 µM,4.5 µM
> 15 µM,3 µM,"O=C(OCc1ccccc1)[C@@H]1CCCN1C(=O)/C=C/c1ccc2c(c1)OCO2 [Compound 109, (S)-3-(3,4-Methylenedioxyphenyl)-prop-2-enoylproline benzyl ester]",–,–,–,–
> 4 µM,3 µM,O=C(OCc1ccccc1)[C@@H]1CCCCN1C(=O)/C=C/c1ccc2c(c1)OCO2 [Compound 110],–,–,–,–
> 30 µM,6 µM,COc1ccc(/C=C/C(=O)N2CCC[C@H]2C(=O)OCc2ccccc2)cc1 [Compound 111],–,–,–,–
> 8 µM,4 µM,"COc1ccc(/C=C/C(=O)N2CCCC[C@H]2C(=O)OCc2ccccc2)cc1 [Compound 112, (S)-Benzyl N-(4-Methoxycinnamoyl)pipecolate]",–,–,–,–
> 25 µM,450 µM,COc1cc(/C=C/C(=O)N2CCC[C@H]2C(=O)OCc2ccccc2)cc(OC)c1OC [Compound 115],–,–,–,–
> 5 µM,20 µM,CN(C)c1ccc(/C=C/C(=O)N2CCCC[C@H]2C(=O)OCc2ccccc2)cc1 [Compound 116],–,–,–,–
> 5 µM,14 µM,O=C(OCc1ccccc1)[C@@H]1CCCCN1C(=O)/C=C/c1ccc([N+](=O)[O-])cc1 [Compound 117],–,–,–,–
> 8 µM,> 60 µM,O=C(OCc1ccccc1)[C@@H]1CCCCN1C(=O)/C=C/c1c[nH]c2ccccc12 [Compound 120],–,–,–,–
> 200 µM,1000 µM,COC(=O)C(=O)N(C)CC(=O)OCc1ccccc1 [Compound 124],–,–,–,–
> 200 µM,400 µM,COC(=O)C(=O)N(C)[C@@H](C)C(=O)OCc1ccccc1 [Compound 125],–,–,–,–
> 200 µM,170 µM,COC(=O)C(=O)N(C)[C@H](C(=O)OCc1ccccc1)C(C)C [Compound 126],–,–,–,–
> 500 µM,> 400 µM,CCN(C(=O)C(=O)OC)[C@@H](C)C(=O)OC(C)(C)C [Compound 128],–,–,–,–
> 150 µM,80 µM,"COc1ccc(/C=C/C(=O)N(C)[C@@H](C)C(=O)OCc2ccccc2)cc1 [Compound 129, (S)-N-3-(4-methoxyphenyl)-prop-2-enoyl-N-methylalanine benzyl ester]",–,–,–,–
> 20 µM,30 µM,COc1ccc(/C=C/C(=O)N(C)[C@H](C(=O)OCc2ccccc2)C(C)C)cc1 [Compound 130],–,–,–,–
